Assay results from US20170298360A1, “LATS AND BREAST CANCER” (FRIEDRICH MIESCHER INSTITUTE FOR BIOMEDICAL RESEARCH, priority 2014, published 2017).
Peptide text beside a SMILES is read from it. * marks the point of attachment. Cbz = O=C(OCc1ccccc1)*

Tests used:
ERα [1] = test: LATS1-induced ERα degradation in LATS1 overexpressing cells (immunoblot); type: cell-based, human
Method: Cell lines and in vitro experiments SUM159PT human breast cancer cells were from Asterand and propagated as recommended. All the other cell lines were from, and were cultured according to the protocol of ATCC. MCF10A cells were maintained as previously described (Bentires-Alj et al., 2006). For most experiments, MCF10A, SUM159 and MDA 436 cells were cultured in M5 medium and the medium was refreshed or replaced every 3 days. Antibody blocking experiments were performed by adding anti-AREG (R&D, MAB262, 0.5-10 μg/ml) or a mouse IgG antibody (R&D, 10 or 2.5 μg/ml) to the medium prior to seeding of the cells or transferring the conditioned medium. Cell viability was measured using the Cell Proliferation Reagent WST-1 (Roche). Colony formation assays were performed by seeding 500-1000 cells/well in 6-well plates. Cells were allowed to adhere overnight before treatment with inhibitors or solvent as indicated. Colonies were stained after 6-10 days with 0.2% crystal violet in PBS/4% formalin. Colony area was quantified using the Odyssey scanner and software (LICOR) or Image-J (Fiji 64 bit). For sphere formation assays, 4000 (passage 1) or 1000 (subsequent passages) MCF10A cells/ml were grown in ultra-low attachment (ULA) dishes (Corning) for 5-7 days. […]

T47D and MCF7 cells = test: Cell viability (WST-1) of ER-positive breast cancer cells after downregulation of LATS; type: cell-based, human; settings: LATS downregulated vs control
Description: (§1) Lentiviral vectors, lentivirus production and infection For LATS knockdown, the following TRC pLKO clones (Sigma) were used: LATS_1=NM_004690.x-2666s1c1, LATS_2=NM_004690.x-3614s1c1, LATS_3=NM_014572.x-2894s1c1 and the MISSION® Non-Target shRNA Control Vector SHC002. For the competition experiment, GFP and ERα expressing lentiviral vectors were cloned as described in (Duss, BCR, 2007). Lentiviruses were produced by PEI transfection of 293 T cells as described (Britschgi et al., 2012; Duss et al., 2014). The titer of each lentiviral batch was determined on PHBECs or MCF10A cells. Cell lines were infected o/n in the presence of hexamethrine bromide (8 μg/mL). Infections were performed at a multiplicity of infection of 5-20 viral particles per cell. Selection with 1.25-1.5 μg/ml puromycin was applied 48 h after infection.
(§2) Cell lines and in vitro experiments SUM159PT human breast cancer cells were from Asterand and propagated as recommended. All the other cell lines were from, and were cultured according to the protocol of ATCC. MCF10A cells were maintained as previously described (Bentires-Alj et al., 2006). […] Cell viability was measured using the Cell Proliferation Reagent WST-1 (Roche). […] Colony area was quantified using the Odyssey scanner and software (LICOR) or Image-J (Fiji 64 bit). […]

ERα [2] = target: T1, ERα (Homo sapiens, UniProt P03372); test: ERα degradation in luminal breast cancer cells lacking LATS; type: cell-based; settings: cancer cells lacking LATS grown as xenograft
T1 sequence (P03372 1-595): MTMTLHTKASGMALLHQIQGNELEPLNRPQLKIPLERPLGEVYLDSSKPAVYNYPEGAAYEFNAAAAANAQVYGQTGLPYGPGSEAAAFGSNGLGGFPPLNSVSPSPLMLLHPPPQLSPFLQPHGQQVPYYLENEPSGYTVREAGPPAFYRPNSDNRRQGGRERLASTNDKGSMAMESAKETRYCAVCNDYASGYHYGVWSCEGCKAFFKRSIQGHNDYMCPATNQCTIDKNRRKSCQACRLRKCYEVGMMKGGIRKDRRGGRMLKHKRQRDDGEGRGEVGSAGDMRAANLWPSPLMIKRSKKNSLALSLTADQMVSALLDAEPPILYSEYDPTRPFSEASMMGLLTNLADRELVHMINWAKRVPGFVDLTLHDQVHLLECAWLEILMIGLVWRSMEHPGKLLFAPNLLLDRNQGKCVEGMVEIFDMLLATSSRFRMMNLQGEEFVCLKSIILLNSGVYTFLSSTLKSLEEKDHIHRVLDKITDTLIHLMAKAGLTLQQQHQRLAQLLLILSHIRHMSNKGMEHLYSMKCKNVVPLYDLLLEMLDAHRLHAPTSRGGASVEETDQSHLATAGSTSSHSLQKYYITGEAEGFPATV
Method: Immunoblotting and immunoprecipitation Cells for immunoblotting and ELISA were lysed with RIPA buffer (50 mM Tris-HCl pH 8, 150 mM NACl, 1% NP-40, 0.5% sodium deoxycholate, 0.1% SDS), supplemented with 1× protease inhibitor cocktail (Complete Mini, Roche), 0.2 mMol/L sodium orthovanadate, 20 mM sodium fluoride and 1 mM phenylmethylsulfonyl fluoride. […]

T47D = test: Orthotopic xenograft tumor growth of ER-positive breast cancer cells lacking LATS; type: in vivo, mouse; settings: cancer cells lacking LATS grown as xenograft, intraperitoneal
Method: Animal experiments SCID/beige and SCID/NOD (Jackson Labs) were used in compliance with the Swiss laws for animal welfare and animal protocols were approved by the Swiss Cantonal Veterinary Office of Basel. For orthotopic engraftment of breast cancer cell lines, 2×10^6 T47D or 1×10^6 SUM159 cells were suspended in a 100 μl mixture of Basement Membrane Matrix Phenol Red-free (BD Biosciences) and PBS 1:1 and injected into the mouse mammary gland 4. For the estrogen-dependent T47D cell line, mice received estrogen-containing drinking water 2 days prior to injection. Tumor-bearing mice were randomized based on tumor volume prior to the initiation of treatment, which started when average tumor volume was at least 100 mm^3. Fulvestrant and Tamoxifen hydrate dissolved in sunflower seed oil (all from Sigma) were injected intraperitoneally as indicated. Tumors were measured every 3 to 4 days with vernier calipers, and tumor volumes were calculated by the formula 0.5×(larger diameter)×(smaller diameter)^2.
Compounds and formulations Fulvestrant, 4-Hydroxytamoxifen (4-OHT), Tamoxifen (OHT), Cycloheximide and MG132 were from Sigma. Fulvestrant and MG-132 were prepared as 10 mMol/L stock solution in DMSO, 4-OHT and Cycloheximide as 10 mMol/L in ethanol and all stock solutions were stored at −20° C. […]

SUM159 and MDA 436 = test: Colony formation of triple-negative breast cancer lines with or without LATS; type: cell-based, human; settings: SUM159 and MDA 436 in M5 medium
Description: as §1, §2

SUM159 shLATS xenografts = test: Orthotopic SUM159 shNT / shLATS xenograft tumor growth; type: in vivo, mouse; settings: tumor-bearing mice, tamoxifen citrate 3 mg/kg, intraperitoneal, n=5, **P<0.01 vs shNT
Method: Animal experiments SCID/beige and SCID/NOD (Jackson Labs) were used in compliance with the Swiss laws for animal welfare and animal protocols were approved by the Swiss Cantonal Veterinary Office of Basel. For orthotopic engraftment of breast cancer cell lines, 2×10^6 T47D or 1×10^6 SUM159 cells were suspended in a 100 μl mixture of Basement Membrane Matrix Phenol Red-free (BD Biosciences) and PBS 1:1 and injected into the mouse mammary gland 4. […] Tumor-bearing mice were randomized based on tumor volume prior to the initiation of treatment, which started when average tumor volume was at least 100 mm^3. Fulvestrant and Tamoxifen hydrate dissolved in sunflower seed oil (all from Sigma) were injected intraperitoneally as indicated. Tumors were measured every 3 to 4 days with vernier calipers, and tumor volumes were calculated by the formula 0.5×(larger diameter)×(smaller diameter)^2.
For in vivo studies, fulvestrant and tamoxifen were dissolved in sunflower seed oil (Sigma) and injected intraperitoneal as indicated.

| degradation of ERα (ERα [2]) | Compound | LATS1-induced degradation of ERα (ERα [1]) | effect of LATS downregulation on sensitivity / viability of treated cells (T47D and MCF7 cells) | reduction of tumor growth (T47D) | colony formation in cells lacking LATS compared to controls (SUM159 and MDA 436) | tumor growth of SUM159 shLATS xenografts (SUM159 shLATS xenografts) | tumor growth of SUM159 shLATS xenografts (SUM159 shLATS xenografts; listed as tamoxifen citrate) |
| --- | --- | --- | --- | --- | --- | --- | --- |
|  | CC(C)C[C@@H](C=O)NC(=O)[C@H](CC(C)C)NC(=O)[C@H](CC(C)C)NC(=O)OCc1ccccc1 [MG132] (Cbz-Leu-Leu-Leu-aldehyde) | prevented |  |  |  |  |  |
| failed to degrade ERα | C[C@]12CC[C@@H]3c4ccc(O)cc4C[C@@H](CCCCCCCCC[S+]([O-])CCCC(F)(F)C(F)(F)F)[C@H]3[C@@H]1CC[C@@H]2O (stereo partly drawn) [fulvestrant, Fulvestrant] |  | reduced sensitivity | failed | no effect |  |  |
|  | CC/C(=C(\c1ccccc1)c1ccc(OCCN(C)C)cc1)c1ccccc1 [tamoxifen, Tamoxifen] |  | no effect |  | reduced colony formation | stopped growing | susceptible |
